In PMC11118514, “Eminent Antimicrobial Peptide Resistance in Zymomonas mobilis: A Novel Advantage of Intrinsically Uncoupled Energetics” (Antibiotics, 2024):
Values after ≈ are worked out from the molar mass of the structure shown. Where a SMILES comes first, the peptide text is derived from it. Where no end group is shown, it is not given here.

Key:
K. pneumonia = settings: cited from earlier work
Source text: Table 1 Minimal inhibitory concentrations (MICs) of AMPs against selected bacteria, μg/mL. | column: From / K. pneumonia

E. Cancerogenus = settings: cited from earlier work
Source text: Table 1 Minimal inhibitory concentrations (MICs) of AMPs against selected bacteria, μg/mL. | column: From / E. Cancerogenus

P. acne = settings: cited from earlier work
Source text: Table 1 Minimal inhibitory concentrations (MICs) of AMPs against selected bacteria, μg/mL. | column: From / P. acne

S. aureus [1] = settings: cited from earlier work
Source text: Table 1 Minimal inhibitory concentrations (MICs) of AMPs against selected bacteria, μg/mL. | column: From / S. aureus

P. aeroginosa = settings: cited from earlier work
Source text: Table 1 Minimal inhibitory concentrations (MICs) of AMPs against selected bacteria, μg/mL. | column: From / P. aeroginosa

E. faecium = settings: cited from earlier work
Source text: Table 1 Minimal inhibitory concentrations (MICs) of AMPs against selected bacteria, μg/mL. | column: From / E. faecium

E. coli [2] = settings: cited from earlier work
Source text: Table 1 Minimal inhibitory concentrations (MICs) of AMPs against selected bacteria, μg/mL. | column: From / E. coli

Z. mobilis [3] = type: cell-based, Zymomonas mobilis
Protocol: Z. mobilis strains, Zm6 (ATCC 29191), E. coli (ATCC 25404) and an S. aureus strain (DSM 20231) were subjected to screening for AMP resistance. Z. mobilis strains were routinely grown on the standard culture medium containing (per liter) 5 g of yeast extract, 1 g of KH2PO4, 1 g of (NH4) 2SO4, and 0.5 g of MgSO4·7H2O, supplemented with 40 mL of 50% glucose solution. E. coli was grown on LB medium, containing (per liter) 10 g of tryptone, 5 g of yeast extract, and 10 g of NaCl. S. aureus was grown on Mueller Hinton Broth, 21 g per 1 L, at 30 °C.
(§1) The quantification of antimicrobial resistance against various AMPs was conducted by monitoring the bacterial growth in the presence of peptides at serial dilutions. This assay was performed in 96-well plates using the Infinite® M200 PRO Multimode Microplate Reader from Tecan in Maennedorf, Switzerland, as described in our recent report. All bacterial strains were cultivated at 32 °C for 13–18 h at 200 rpm. Optical density measurements (λ = 550 nm) were automatically recorded at 10 min intervals. The antimicrobial resistance activity was quantified as the minimum inhibitory concentration (MIC), which represents the lowest peptide concentration capable of preventing the growth of bacterial cells.

[4] = system: Z. mobilis cell suspension (proton-dependent ATP synthase of the cytoplasmic membrane); test: ATP synthesis induced by artificial transmembrane pH gradient; type: cell-based, Zymomonas mobilis; settings: Z. mobilis starved cells; 10 μM, added 5 min before pH shift of 3.5–4.0 units; luciferin–luciferase
Protocol: (§2) Here, we assumed that any effect the AMPs exerted on the pH-induced ATP synthesis indicated a direct interaction between the peptide and the cytoplasmic membrane. After the induction of a pH gradient of 3.5–4.0 units in cell suspensions of both Z. mobilis and E. coli, we observed an abrupt increase in the intracellular ATP concentration, reaching its maximum value within a time span between 30 sec and 1 min. The magnitude of the observed ATP concentration rise approximately corresponded to previously published values. […] When added in amounts below the threshold value (Figure 4a,b), peptides had no inhibitory effect on the ATP response. […] Yet, such an effect elicits a much stronger physiological response in E. coli than in Z. mobilis.
(§3) ATP synthase activity induced by an artificial pH gradient was measured in non-growing starved cell suspensions. For the preparation of non-growing cell suspension, cells were harvested in the late exponential phase, sedimented, washed, and resuspended in 100 mM potassium phosphate buffer (pH 7.0), to a biomass concentration of 1.5–2.0 mg dry wt /mL. […] For ATP determination, 20 μL samples were quenched in ice-cold 10% TCA and assayed by the standard luciferin–luciferase method using a TECAN Infinite 200Pro microplate reader (Tecan, Männedorf, Switzerland). […]

[5] = system: E. coli cell suspension (proton-dependent ATP synthase of the cytoplasmic membrane); test: as above; type: cell-based, Escherichia coli; settings: E. coli starved cells; 10 μM, added 5 min before pH shift of 3.5–4.0 units; luciferin–luciferase
Protocol: as §2, §3

S. aureus [6] = test: Normalized inhibitory concentration (peptide molecules per cell); type: cell-based; settings: added AMP normalized to inoculum size, calculated with E. coli cell size parameters
Source text: (§4) We noted, however, that there was a substantial difference between the specific cultivation conditions of Z. mobilis and the rest of the tested bacteria: Z. mobilis required a higher concentration of inoculum. A higher amount of biomass introduced at the start of cultivation might mitigate the antimicrobial effect of AMPs, since this decreases the number of peptide molecules available to penetrate the membrane of each individual cell. Indeed, it was shown that at least […] bound peptide molecules per bacterial cell are needed to kill it. […] For these experiments, we chose one Gram-positive and one Gram-negative model strain (S.aureus and E.coli, respectively) and two AMPs, RP556 and R10. […]
as §1, with “All bacterial strains were cultivated at 32 °C for 13–18 h at 200 rpm.” left out

Z. mobilis [7] = test: as above; type: cell-based, Zymomonas mobilis; settings: added AMP normalized to inoculum size, calculated with E. coli cell size parameters
Source text: as §4
as §1, with “All bacterial strains were cultivated at 32 °C for 13–18 h at 200 rpm.” left out

E. coli [8] = test: as above; type: cell-based, Escherichia coli; settings: added AMP normalized to inoculum size, calculated with E. coli cell size parameters
Source text: as §4
as §1, with “All bacterial strains were cultivated at 32 °C for 13–18 h at 200 rpm.” left out

Row | Molecule | MIC (K. pneumonia) | MIC (E. Cancerogenus) | MIC (P. acne) | MIC (S. aureus [1]) | MIC (P. aeroginosa) | MIC (E. faecium) | MIC (E. coli [2]) | MIC (Z. mobilis [3]) | effect on pH gradient-induced ATP synthesis [4] | effect on pH gradient-induced ATP synthesis [5] | Normalized inhibitory concentration (S. aureus [6]) | Normalized inhibitory concentration (Z. mobilis [7]) | Normalized inhibitory concentration (E. coli [8])
1 | CC(C)C[C@H](NC(=O)[C@H](CS)NC(=O)[C@H](Cc1ccccc1)NC(=O)[C@@H](N)CCCCN)C(=O)N[C@@H](CCCCN)C(=O)N[C@@H](Cc1ccccc1)C(=O)N[C@@H](CS)C(=O)N[C@@H](Cc1ccccc1)C(=O)N[C@@H](CCCCN)C(=O)NCC(=O)N[C@@H](Cc1ccccc1)C(=O)N[C@@H](CS)C(=O)N[C@@H](Cc1ccccc1)C(=O)N[C@@H](CCCCN)C(=O)N[C@@H](C)C(=O)N[C@@H](CS)C(=O)NCC(=O)N[C@@H](CCCCN)C(=O)O [R11] (H-KFCLKFCFKGFCFKACGK-OH; N-terminus and C-terminus assumed) | 63.0 µg/mL (≈ 29.9 µM) | 63.0 µg/mL (≈ 29.9 µM) | 0.3 µg/mL (≈ 0.142 µM) | 16.0 µg/mL (≈ 7.6 µM) | 63.0 µg/mL (≈ 29.9 µM) | 16.0 µg/mL (≈ 7.6 µM) | 125.0 µg/mL (≈ 59.4 µM) | 250.0 µg/mL (≈ 119 µM) | – | – | – | – | –
2 | N#CC(C#N)=NNc1cccc(Cl)c1 [ClCCP] | – | – | – | – | – | – | – | – | almost complete de-energization and a dramatic drop of the ATP yield | almost complete de-energization and a dramatic drop of the ATP yield | – | – | –
3 | CC(C)[C@H](NC(=O)[C@H](Cc1ccc(O)cc1)NC(=O)[C@H](Cc1c[nH]c2ccccc12)NC(=O)[C@H](CS)NC(=O)[C@H](Cc1ccccc1)NC(=O)CN)C(=O)N[C@@H](CS)C(=O)N[C@@H](C)C(=O)N[C@@H](CCCNC(=N)N)C(=O)N[C@@H](CCCNC(=N)N)C(=O)N[C@@H](CC(N)=O)C(=O)NCC(=O)N[C@@H](C)C(=O)N[C@@H](CCCNC(=N)N)C(=O)N[C@H](C(=O)N[C@@H](CS)C(=O)N[C@@H](Cc1ccc(O)cc1)C(=O)N[C@@H](CCCNC(=N)N)C(=O)N[C@@H](CCCNC(=N)N)C(=O)N[C@@H](CS)C(=O)N[C@@H](CC(N)=O)C(=O)O)C(C)C [AA139] (H-GFCWYVCARRNGARVCYRRCN-OH; N-terminus and C-terminus assumed) | 8.0 µg/mL (≈ 3.13 µM) | 8.0 µg/mL (≈ 3.13 µM) | 63.0 µg/mL (≈ 24.7 µM) | 8.0 µg/mL (≈ 3.13 µM) | 16.0 µg/mL (≈ 6.26 µM) | 16.0 µg/mL (≈ 6.26 µM) | 4.0 µg/mL (≈ 1.57 µM) | 250.0 µg/mL (≈ 97.9 µM) | – | – | – | – | –
4 | KKIAKKFWKKFWKFWPKFWKIFKK [R14] | 4.0 µg/mL | 16.0 µg/mL | 1.0 µg/mL | 8.0 µg/mL | 4.0 µg/mL | 8.0 µg/mL | 16.0 µg/mL | 63.0 µg/mL | – | – | – | – | –
5 | FAKALKALLKALKAL [Oligo10] | 63.0 µg/mL | 63.0 µg/mL | 2.0 µg/mL | 4.0 µg/mL | 63.0 µg/mL | 16.0 µg/mL | 16.0 µg/mL | 31.0 µg/mL | – | – | – | – | –
6 | KIAKRIWKRIWKILRRR [PA13] | 16.0 µg/mL | 16.0 µg/mL | 16.0 µg/mL | 2.0 µg/mL | 16.0 µg/mL | 4.0 µg/mL | 31.0 µg/mL | 63.0 µg/mL | – | – | – | – | –
7 | VKRWKKWWRKWKKWV [LZ1] | 16.0 µg/mL | 16.0 µg/mL | 8.0 µg/mL | 2.0 µg/mL | 8.0 µg/mL | 4.0 µg/mL | 31.0 µg/mL | – | – | – | – | – | –
8 | IAKKFWKKFWKFWKIFKKIA [R12] | 31.0 µg/mL | 31.0 µg/mL | 0.5 µg/mL | 8.0 µg/mL | 4.0 µg/mL | 16.0 µg/mL | 8.0 µg/mL | 63.0 µg/mL | – | – | – | – | –
9 | KKIAKKFWKKFWKFWKIFKK [R10] | 8.0 µg/mL | 16.0 µg/mL | 0.5 µg/mL | 4.0 µg/mL | 2.0 µg/mL | 4.0 µg/mL | 2.0 µg/mL | 31.0 µg/mL | – | – | 1.98 × 10^8 peptide molecules per cell | 6.58 × 10^9 peptide molecules per cell | 2.30 × 10^7 peptide molecules per cell
10 | CC[C@H](C)[C@H](NC(=O)CNC(=O)[C@H](CCCCN)NC(=O)[C@H](Cc1ccc(O)cc1)NC(=O)[C@H](CS)NC(=O)[C@@H](NC(=O)[C@H](CCCCN)NC(=O)[C@H](Cc1ccccc1)NC(=O)[C@H](CS)NC(=O)[C@H](Cc1c[nH]c2ccccc12)NC(=O)[C@@H](N)CCCNC(=N)N)C(C)C)C(=O)N[C@@H](CS)C(=O)N[C@@H](Cc1ccc(O)cc1)C(=O)N[C@@H](CCCCN)C(=O)N[C@@H](CCCCN)C(=O)N[C@@H](CS)C(=O)N[C@@H](CCCCN)C(=O)O [RP556] (H-RWCFKVCYKGICYKKCK-OH; N-terminus and C-terminus assumed) | 4.0 µg/mL (≈ 1.85 µM) | 4.0 µg/mL (≈ 1.85 µM) | 2.0 µg/mL (≈ 0.927 µM) | 1.0 µg/mL (≈ 0.464 µM) | 2.0 µg/mL (≈ 0.927 µM) | 2.0 µg/mL (≈ 0.927 µM) | 4.0 µg/mL (≈ 1.85 µM) | – | – | – | 2.43 × 10^7 peptide molecules per cell | 1.68 × 10^10 peptide molecules per cell | 2.93 × 10^7 peptide molecules per cell
11 | IAKKFWPKFWKFWKIFKKIA [R13] | 8.0 µg/mL | 31.0 µg/mL | 0.3 µg/mL | 4.0 µg/mL | 4.0 µg/mL | 16.0 µg/mL | 4.0 µg/mL | 63.0 µg/mL | – | – | – | – | –
